We go through eleven compounds from PubChem BioAssay (NCI).

Among the test systems are COLO 205 colon; HCC-2998 colon; MOLT-4 leukemia; OVCAR-5 ovarian; OVCAR-8 ovarian; SNB-19 CNS; SR leukemia; T-47D breast; U251 CNS; UACC-257 melanoma.
Common to all, as to experiment: DTP human tumour cell line panel, 48 h

The structures appear in SMILES notation.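 The compound was tested at five concentrations on cells cultured in 96-well plates, with a 48-hour exposure period. GI50 marks 50% less growth. TGI: concentration producing complete growth inhibition.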

Regarding `c1cc(CN2CCCNCCNCCCNCC2)ccc1CN1CCCNCCNCCCNCC1`, the GI50 in the assay with COLO 205 colon, with HCC-2998 colon, in the assay on MOLT-4 leukemia, in the assay with OVCAR-5 ovarian, in the assay on OVCAR-8 ovarian and in the assay on SNB-19 CNS was over 100 µM in each case. For the same compound, the GI50 in the assay on SR leukemia, in the assay with T-47D breast, in the assay with U251 CNS and with UACC-257 melanoma was over 100 µM each time. Moreover, the concentration for total growth inhibition (TGI) in the assay on COLO 205 colon, with HCC-2998 colon, with MOLT-4 leukemia, in the assay on OVCAR-5 ovarian, in the assay on OVCAR-8 ovarian and with SNB-19 CNS was over 100 µM in each case. The TGI in the assay with SR leukemia, with T-47D breast, in the assay on U251 CNS and in the assay with UACC-257 melanoma was over 100 µM in each case.
`O=C1NC(=O)[C@@]2(CC[C@@H](O)C2)c2ccncc21`: the TGI in the assay on COLO 205 colon, in the assay with HCC-2998 colon, in the assay with MOLT-4 leukemia, in the assay on OVCAR-5 ovarian, in the assay with OVCAR-8 ovarian and in the assay with SNB-19 CNS was over 100 µM in each case. Also, the TGI in the assay with SR leukemia, in the assay with T-47D breast, in the assay with U251 CNS and in the assay on UACC-257 melanoma was over 100 µM each time.
Turning to `COc1ccc(-c2nsc3c2NC(=O)CC3c2ccc3c(c2)OCCO3)cc1` (stereo not given), the GI50 (commonly the concentration that inhibits growth by half) was 0.431 µM in the assay on COLO 205 colon; 1.38 µM in the assay on HCC-2998 colon; 0.622 µM in the assay on MOLT-4 leukemia; 10.2 µM in the assay on OVCAR-5 ovarian; 1.02 µM in the assay with OVCAR-8 ovarian; 0.924 µM in the assay on SNB-19 CNS. For the same compound, the 50% growth inhibitory concentration (GI50) in the assay with SR leukemia is 0.301 µM; in the assay with T-47D breast, 0.454 µM; in the assay on U251 CNS, 0.5 µM; in the assay with UACC-257 melanoma, 0.981 µM. In addition, the concentration for total growth inhibition (TGI) (commonly the concentration at which net growth stops) in the assay with COLO 205 colon is 2.18 µM; in the assay on HCC-2998 colon, 19.5 µM; with MOLT-4 leukemia it was over 100 µM; with OVCAR-5 ovarian, over 100 µM; with OVCAR-8 ovarian it was over 100 µM; in the assay with SNB-19 CNS it was over 100 µM. Also, the TGI in the assay with SR leukemia, with T-47D breast, in the assay with U251 CNS and in the assay with UACC-257 melanoma was over 100 µM each time.
For the compound `C=C1C(=O)O[C@H]2[C@H]1CC/C(COC(=O)c1cn(C)c3ccccc13)=C\CC[C@@]1(C)O[C@@H]21`, the GI50 in the assay on COLO 205 colon is 1.24 µM; with HCC-2998 colon, 1.81 µM; with MOLT-4 leukemia, 0.578 µM; with OVCAR-5 ovarian, 1.56 µM; in the assay with OVCAR-8 ovarian, 0.8 µM; with SNB-19 CNS it was 1.59 µM. Further, the concentration for 50% growth inhibition (GI50) in the assay with SR leukemia was 0.342 µM; in the assay on T-47D breast, 1.19 µM; in the assay on U251 CNS it was 1.42 µM; in the assay on UACC-257 melanoma, 1.32 µM. The concentration for total growth inhibition (TGI) was 2.59 µM in the assay on COLO 205 colon; 3.8 µM with HCC-2998 colon; 3.54 µM in the assay on MOLT-4 leukemia; 4.11 µM in the assay on OVCAR-5 ovarian; 2.4 µM in the assay with OVCAR-8 ovarian; 3.64 µM in the assay with SNB-19 CNS. Further, the total growth inhibition concentration (TGI) was 1.17 µM in the assay with SR leukemia, 3.42 µM with T-47D breast, 2.77 µM in the assay with U251 CNS and 2.65 µM with UACC-257 melanoma.
On to `c1ccc2cc(Cn3cc[n+](Cc4ccc5ccccc5c4)c3)ccc2c1`, for which the GI50 is 0.4 µM with COLO 205 colon; 1.05 µM in the assay with HCC-2998 colon; 1.24 µM in the assay on MOLT-4 leukemia; 1.71 µM with OVCAR-5 ovarian; 1.64 µM in the assay with OVCAR-8 ovarian; 0.979 µM in the assay on SNB-19 CNS. Besides, the GI50 with SR leukemia was 1.03 µM; with T-47D breast, 0.385 µM; in the assay with U251 CNS, 1.5 µM; in the assay with UACC-257 melanoma it was 0.587 µM. Besides, the TGI in the assay with COLO 205 colon is 1.67 µM; with HCC-2998 colon, 4.38 µM; in the assay with MOLT-4 leukemia it was 8.38 µM; in the assay on OVCAR-5 ovarian it was 7.19 µM; in the assay with OVCAR-8 ovarian, 12.3 µM; with SNB-19 CNS it was 6.97 µM. Further, the TGI with SR leukemia stood at 3.42 µM; with T-47D breast it was 5.24 µM; in the assay on U251 CNS it was 11 µM; in the assay with UACC-257 melanoma it was 2.55 µM.
As for `Oc1[nH]c(N=C2N=c3ccccc3=N2)c2ccccc12`, the GI50 in the assay with COLO 205 colon is 6.39 µM; with HCC-2998 colon, 17.4 µM; with MOLT-4 leukemia, 3.28 µM; with OVCAR-5 ovarian it was 20.4 µM; in the assay on OVCAR-8 ovarian, 11.4 µM; in the assay on SNB-19 CNS, 15.7 µM. For the same compound, the GI50 in the assay on SR leukemia is 5.46 µM; with T-47D breast, 8.27 µM; with U251 CNS, 3.4 µM; with UACC-257 melanoma, 13.7 µM. Also, the TGI in the assay with COLO 205 colon was 20.5 µM; in the assay with HCC-2998 colon it was over 100 µM; in the assay on MOLT-4 leukemia it was 29.5 µM; with OVCAR-5 ovarian it was 68.1 µM; in the assay with OVCAR-8 ovarian it was 46.4 µM; with SNB-19 CNS it was 93 µM. The concentration for total growth inhibition (TGI) in the assay with SR leukemia is 41.6 µM; with T-47D breast, 85.8 µM; in the assay on U251 CNS, 42.3 µM; in the assay with UACC-257 melanoma, over 100 µM.
For `Cc1ccc2[nH]c3c(c2c1)N=c1ccccc1=NO3`, the GI50 is 31.9 µM with COLO 205 colon; 81.7 µM in the assay with HCC-2998 colon; over 100 µM with MOLT-4 leukemia; over 100 µM in the assay with OVCAR-5 ovarian; 17.5 µM in the assay on OVCAR-8 ovarian; 32.6 µM in the assay with SNB-19 CNS. Besides, the GI50 in the assay with SR leukemia was 33.4 µM; in the assay with T-47D breast, 74.4 µM; in the assay with U251 CNS, 53.7 µM; with UACC-257 melanoma, 70.6 µM. The TGI in the assay with COLO 205 colon is over 100 µM; in the assay on HCC-2998 colon, over 100 µM; in the assay on MOLT-4 leukemia, over 100 µM; with OVCAR-5 ovarian, over 100 µM; in the assay on OVCAR-8 ovarian, 43 µM; with SNB-19 CNS it was over 100 µM. Moreover, the TGI in the assay with SR leukemia, in the assay on T-47D breast, in the assay on U251 CNS and with UACC-257 melanoma was over 100 µM each time.
On to `C=C(C)[C@@H]1C/C=C(/CO)CC[C@H]2O[C@]2(C)CC/C=C(\C)CC1`, for which the GI50 with COLO 205 colon was 13.2 µM; in the assay with HCC-2998 colon it was 19.8 µM; in the assay on MOLT-4 leukemia, 12.7 µM; in the assay on OVCAR-5 ovarian, 24.7 µM; with OVCAR-8 ovarian, 24 µM; with SNB-19 CNS it was 18 µM. In addition, the GI50 in the assay on SR leukemia is 17.2 µM; with T-47D breast, 17.4 µM; with U251 CNS, 19.9 µM; in the assay on UACC-257 melanoma it was 22 µM. The TGI in the assay with COLO 205 colon is 26.7 µM; in the assay with HCC-2998 colon, 40.4 µM; in the assay with MOLT-4 leukemia, 32 µM; with OVCAR-5 ovarian it was over 100 µM; in the assay on OVCAR-8 ovarian it was 58.4 µM; in the assay with SNB-19 CNS, 33.8 µM. Moreover, the TGI in the assay with SR leukemia was 38.6 µM; with T-47D breast it was 47.8 µM; with U251 CNS it was 36.2 µM; in the assay with UACC-257 melanoma, 43.6 µM.
In the case of `CC(CN(C)C)S(=O)(=O)c1ccc(-c2cnc(N)c(C(=O)Nc3ccccc3)n2)cc1` (stereo not given), the GI50 was 2.74 µM with COLO 205 colon; 0.973 µM in the assay with HCC-2998 colon; 3.15 µM with MOLT-4 leukemia; 11.8 µM with OVCAR-5 ovarian; 10.3 µM in the assay on OVCAR-8 ovarian; 16.3 µM in the assay with SNB-19 CNS. Further, the GI50 in the assay on SR leukemia was 1.39 µM; in the assay on T-47D breast, 13.1 µM; in the assay on U251 CNS it was 4.17 µM; with UACC-257 melanoma, 2.04 µM. Further, the TGI with COLO 205 colon was 8.56 µM; in the assay on HCC-2998 colon, 16.6 µM; with MOLT-4 leukemia, 14.2 µM; in the assay on OVCAR-5 ovarian, 34.5 µM; with OVCAR-8 ovarian it was over 89.8 µM; with SNB-19 CNS, 75.1 µM. In addition, the TGI in the assay on SR leukemia worked out at 8.53 µM; with T-47D breast, 59.3 µM; in the assay with U251 CNS it was 30 µM; in the assay with UACC-257 melanoma, 5.06 µM.
On to `Nc1ncnc2c1c(-c1ccc(Oc3ccccc3)cc1)nn2C[C@H]1SSC[C@@H]1O`, for which the GI50 with COLO 205 colon is 2.06 µM; with HCC-2998 colon, 3.3 µM; in the assay with MOLT-4 leukemia, 0.0825 µM; in the assay with OVCAR-5 ovarian it was 6.35 µM; with OVCAR-8 ovarian it was 0.523 µM; in the assay with SNB-19 CNS it was 1.4 µM. Further, the 50% growth inhibitory concentration (GI50) in the assay on SR leukemia was 0.165 µM; in the assay with T-47D breast it was 0.685 µM; with U251 CNS, 1.45 µM; in the assay with UACC-257 melanoma it was 0.374 µM. Also, the TGI was determined as 9.82 µM in the assay on COLO 205 colon; 27.6 µM in the assay on HCC-2998 colon; 0.361 µM in the assay on MOLT-4 leukemia; 41 µM in the assay with OVCAR-5 ovarian; 15.9 µM in the assay on OVCAR-8 ovarian; 12 µM in the assay on SNB-19 CNS. The concentration for total growth inhibition (TGI) in the assay on SR leukemia worked out at 0.627 µM; with T-47D breast, 3.63 µM; in the assay on U251 CNS it was 13.2 µM; with UACC-257 melanoma, 16.1 µM.
On to `O=P(O)(O)OCC1OC(n2cnc3c(NCc4ccco4)ncnc32)C(O)C1O` (stereo not given), for which the GI50 in the assay with COLO 205 colon is 2.12 µM; in the assay with HCC-2998 colon it was 3.61 µM; with MOLT-4 leukemia, 0.339 µM; in the assay on OVCAR-5 ovarian, 5.64 µM; with OVCAR-8 ovarian, 0.861 µM; with SNB-19 CNS it was 4.18 µM. The GI50 in the assay with SR leukemia was 1.11 µM; in the assay with T-47D breast it was 3.24 µM; with U251 CNS, 4.33 µM; in the assay with UACC-257 melanoma, over 100 µM. In addition, the total growth inhibition concentration (TGI) was 9.88 µM in the assay with COLO 205 colon; over 30.2 µM with HCC-2998 colon; 1.9 µM with MOLT-4 leukemia; over 100 µM in the assay with OVCAR-5 ovarian; 6.9 µM in the assay on OVCAR-8 ovarian; over 100 µM in the assay on SNB-19 CNS. Besides, the TGI was 3.93 µM with SR leukemia, 17.3 µM in the assay with T-47D breast, over 100 µM in the assay with U251 CNS and over 100 µM with UACC-257 melanoma.
